Biological target: T1, human F508del CFTR (Homo sapiens, UniProt P13569, DEL508-508)
T1 construct: expressed in transfected cells
Assay: CFTR-YFP Assay, CFTR Corrector Protocol (YFP flux assay)
Type: cell-based
Details: for Emax: normalized to the positive control, read-out: EMAX (% Efficacy, EMAX normalized to the positive control)

T1 sequence (P13569 with tags, fused parts or gaps DEL508-508): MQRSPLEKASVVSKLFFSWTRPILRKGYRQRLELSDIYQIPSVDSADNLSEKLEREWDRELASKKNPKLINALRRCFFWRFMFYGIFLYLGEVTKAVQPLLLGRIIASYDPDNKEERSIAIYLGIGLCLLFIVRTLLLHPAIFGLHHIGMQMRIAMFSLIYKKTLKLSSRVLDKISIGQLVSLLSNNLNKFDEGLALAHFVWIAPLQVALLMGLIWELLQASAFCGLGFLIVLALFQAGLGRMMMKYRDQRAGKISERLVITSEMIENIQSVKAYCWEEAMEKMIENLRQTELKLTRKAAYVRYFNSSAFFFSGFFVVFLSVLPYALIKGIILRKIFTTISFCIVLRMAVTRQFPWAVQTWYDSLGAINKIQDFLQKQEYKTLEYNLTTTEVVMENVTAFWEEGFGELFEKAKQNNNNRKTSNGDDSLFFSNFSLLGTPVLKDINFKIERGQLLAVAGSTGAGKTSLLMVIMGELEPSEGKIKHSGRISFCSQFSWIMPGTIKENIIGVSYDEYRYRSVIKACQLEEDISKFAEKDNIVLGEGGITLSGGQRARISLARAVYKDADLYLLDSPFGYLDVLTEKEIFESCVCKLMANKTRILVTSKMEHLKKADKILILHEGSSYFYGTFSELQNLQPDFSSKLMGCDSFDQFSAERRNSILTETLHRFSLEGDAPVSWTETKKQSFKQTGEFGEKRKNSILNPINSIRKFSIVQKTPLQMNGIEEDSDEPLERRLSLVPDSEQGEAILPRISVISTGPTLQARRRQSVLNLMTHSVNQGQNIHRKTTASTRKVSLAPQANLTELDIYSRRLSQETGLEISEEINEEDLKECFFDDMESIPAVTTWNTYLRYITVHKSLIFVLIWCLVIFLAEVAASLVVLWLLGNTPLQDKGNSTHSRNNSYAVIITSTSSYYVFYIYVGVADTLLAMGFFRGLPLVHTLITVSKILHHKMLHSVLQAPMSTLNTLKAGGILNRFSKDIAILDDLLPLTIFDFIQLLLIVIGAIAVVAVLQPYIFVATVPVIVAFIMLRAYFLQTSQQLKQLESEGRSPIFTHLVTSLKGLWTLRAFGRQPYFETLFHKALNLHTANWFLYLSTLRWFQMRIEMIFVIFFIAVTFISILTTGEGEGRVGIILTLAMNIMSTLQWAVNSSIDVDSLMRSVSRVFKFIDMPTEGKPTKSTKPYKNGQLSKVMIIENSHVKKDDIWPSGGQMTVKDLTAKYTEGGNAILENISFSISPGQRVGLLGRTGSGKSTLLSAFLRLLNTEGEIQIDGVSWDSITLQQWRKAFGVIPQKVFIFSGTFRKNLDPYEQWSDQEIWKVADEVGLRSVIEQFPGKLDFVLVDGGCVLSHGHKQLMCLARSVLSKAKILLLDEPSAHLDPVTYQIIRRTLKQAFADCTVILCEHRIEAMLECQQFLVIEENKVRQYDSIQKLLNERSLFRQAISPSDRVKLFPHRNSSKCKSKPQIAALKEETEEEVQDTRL

SMILES | EC50 | Emax
Cc1ccc2nc(-c3ccccc3)n(C3CCN(S(=O)(=O)c4ccc(C)c(Cl)c4)CC3)c2n1 [Example 63] | < 10 µM | 30 to 80%
COc1ccc(S(=O)(=O)N2CCC(n3c(-c4ccccc4)nc4ccc(C)nc43)CC2)cc1F [Example 64] | < 10 µM | 30 to 80%
Cc1ccc(S(=O)(=O)N2CCC(n3c(-c4ccccc4Cl)nc4ccc(C)nc43)CC2)cc1 [Example 65] | < 10 µM | 30 to 80%
O=S(=O)(N1CCOCC1)N1CCC(n2c(-c3ccccc3)nc3cccnc32)CC1 [Example 67] | > 20 µM | 10 to 30%
COc1cccc(S(=O)(=O)N2CCC(n3c(-c4ccccc4)nc4cccnc43)CC2)c1 [Example 68] | < 10 µM | 10 to 30%
CC(C)c1ccc(S(=O)(=O)N2CCC(n3c(-c4ccccc4)nc4cccnc43)CC2)cc1 [Example 69] | < 10 µM | 10 to 30%
CC(=O)Nc1ccc(S(=O)(=O)N2CCC(n3c(-c4ccccc4)nc4cccnc43)CC2)cc1Cl [Example 70] | < 10 µM | 10 to 30%
N#Cc1ccc(S(=O)(=O)N2CCC(n3c(-c4ccccc4)nc4cccnc43)CC2)cc1Cl [Example 71] | < 10 µM | 10 to 30%
O=S(=O)(c1c[nH]cn1)N1CCC(n2c(-c3ccccc3)nc3cccnc32)CC1 [Example 72] | < 10 µM | 10 to 30%
COc1ccc(S(=O)(=O)N2CCC(n3c(-c4ccccc4)nc4cccnc43)CC2)cc1C [Example 73] | < 10 µM | 30 to 80%
COc1ccc(S(=O)(=O)N2CCC(n3c(-c4ccccc4)nc4cccnc43)CC2)cc1C(F)(F)F [Example 74] | < 10 µM | 30 to 80%
COc1ccc(S(=O)(=O)N2CCC(n3c(-c4ncc[nH]4)nc4cccnc43)CC2)cc1Cl [Example 75] | 10 to 20 µM | 30 to 80%
COc1ccc(S(=O)(=O)N2CCC(n3c(-c4ccccc4OC(F)(F)F)nc4cccnc43)CC2)cc1Cl [Example 76] | < 10 µM | 30 to 80%
COc1ccc(S(=O)(=O)N2CCC(n3c(-c4ccc(F)cc4)nc4cccnc43)CC2)cc1Cl [Example 77] | < 10 µM | 30 to 80%
COc1ccc(S(=O)(=O)N2CCC(n3c(-c4ccc(C(F)(F)F)cc4)nc4cccnc43)CC2)cc1Cl [Example 78] | < 10 µM | 10 to 30%
COC(=O)c1ccccc1-c1nc2cccnc2n1C1CCN(S(=O)(=O)c2ccc(OC)c(Cl)c2)CC1 [Example 79] | < 10 µM | 30 to 80%
COc1ccc(S(=O)(=O)N2CCC(n3c(-c4ccccc4OC(C)=O)nc4cccnc43)CC2)cc1Cl [Example 80] | < 10 µM | 30 to 80%
COc1ccc(S(=O)(=O)N2CCC(n3c(-c4ccccc4)nc4ccccc43)CC2)cc1Cl [Example 81] | < 10 µM | 30 to 80%
O=S(=O)(c1ccc2c(c1)OC(F)(F)O2)N1CCC(n2c(-c3ccccc3)nc3ccccc32)CC1 [Example 82] | < 10 µM | 30 to 80%
Cc1ccc2nc(-c3ccccc3F)n(C3CCN(S(=O)(=O)c4ccc5c(c4)OC(F)(F)O5)CC3)c2n1 [Example 83] | < 10 µM | 30 to 80%
Cc1ccc2nc(-c3ccc(F)cc3)n(C3CCN(S(=O)(=O)c4ccc5c(c4)OC(F)(F)O5)CC3)c2n1 [Example 84] | < 10 µM | 30 to 80%

SMILES | EC50 | Emax
COc1ccc(S(=O)(=O)N2CCC(n3c(-c4ccccc4Cl)nc4ccc(C)nc43)CC2)cc1OC [Example 85] | > 20 µM | 10 to 30%
Cc1ccc2nc(-c3ccccc3Cl)n(C3CCN(S(=O)(=O)c4ccc5c(c4)OC(F)(F)O5)CC3)c2n1 [Example 86] | < 10 µM | 30 to 80%
Cc1ccc2nc(-c3ccc4c(c3)OC(F)(F)O4)n(C3CCN(S(=O)(=O)c4ccc5c(c4)OC(F)(F)O5)CC3)c2n1 [Example 87] | > 20 µM | 10 to 30%
COc1ccc(S(=O)(=O)N2CCC(n3c(-c4cccnc4Cl)nc4cccnc43)CC2)cc1Cl [Example 88] | > 20 µM | 30 to 80%
COc1ccc(S(=O)(=O)N2CCC(n3c(-c4ccncc4Cl)nc4cccnc43)CC2)cc1Cl [Example 89] | 10 to 20 µM | > 80%
COc1ccc(S(=O)(=O)N2CCC(n3c(-c4ncccc4Cl)nc4cccnc43)CC2)cc1Cl [Example 90] | 10 to 20 µM | 30 to 80%
CCc1ccc(S(=O)(=O)N2CCC(n3c(-c4ncccc4Cl)nc4cccnc43)CC2)cc1 [Example 91] | < 10 µM | 30 to 80%
O=S(=O)(c1ccc2c(c1)OCO2)N1CCC(n2c(-c3cccnc3Cl)nc3cccnc32)CC1 [Example 92] | < 10 µM | 30 to 80%
O=S(=O)(c1ccc2c(c1)OCO2)N1CCC(n2c(-c3ncccc3Cl)nc3cccnc32)CC1 [Example 93] | < 10 µM | 30 to 80%
O=S(=O)(c1cccc(OC(F)F)c1)N1CCC(n2c(-c3ccncc3Cl)nc3cccnc32)CC1 [Example 94] | < 10 µM | 10 to 30%
Cc1ccc(S(=O)(=O)N2CCC(n3c(-c4ccncc4Cl)nc4cccnc43)CC2)cc1C#N [Example 95] | 10 to 20 µM | 10 to 30%
Cc1ccc(S(=O)(=O)N2CCC(n3c(-c4ccccc4Cl)nc4cccnc43)CC2)cc1C#N [Example 96] | < 10 µM | 30 to 80%
Cc1ccc2nc(-c3ccccc3)n(C3CCN(S(=O)(=O)c4ccc5c(c4)OC(F)(F)O5)CC3)c2n1 [Example 97] | < 10 µM | 30 to 80%
COc1ccc(S(=O)(=O)N2CCC(n3c(-c4ccccc4)cc4cccnc43)CC2)cc1Cl [Example 98] | < 10 µM | 10 to 30%
O=S(=O)(c1ccc2c(c1)OC(F)(F)O2)N1CCC(n2c(-c3ccccc3)cc3cccnc32)CC1 [Example 99] | < 10 µM | 30 to 80%
O=S(=O)(c1ccc2c(c1)OCO2)N1CCC(n2c(-c3ccccc3C(F)(F)F)nc3cccnc32)CC1 [Example 100] | < 10 µM | 10 to 30%
Cc1ccc2nc(-c3cccnc3Cl)n(C3CCN(S(=O)(=O)c4ccc5c(c4)OCO5)CC3)c2n1 [Example 101] | < 10 µM | 10 to 30%
O=S(=O)(c1ccc2c(c1)OC(F)(F)O2)N1CCC(n2c(-c3cccnc3Cl)nc3cccnc32)CC1 [Example 102] | < 10 µM | 30 to 80%
COc1ccc(S(=O)(=O)N2CCC(n3c(-c4ccccc4)cc4ccccc43)CC2)cc1Cl [Example 103] | < 10 µM | 10 to 30%
O=S(=O)(c1ccc2c(c1)OC(F)(F)O2)N1CCC(n2c(-c3ccccc3)cc3ccccc32)CC1 [Example 104] | < 10 µM | 30 to 80%
O=S(=O)(c1ccc2c(c1)OCO2)N1CCC(n2c(-c3ccc(F)nc3F)nc3cccnc32)CC1 [Example 105] | < 10 µM | 30 to 80%

SMILES | EC50 | Emax
O=S(=O)(c1ccc2c(c1)OC(F)(F)O2)N1CCC(n2c(-c3ccc(F)nc3F)nc3cccnc32)CC1 [Example 106] | < 10 µM | 10 to 30%
O=S(=O)(c1ccc2c(c1)OCO2)N1CCC(n2c(-c3ccncc3F)nc3cccnc32)CC1 [Example 107] | < 10 µM | 30 to 80%
O=S(=O)(c1ccc2c(c1)OCO2)N1CCC(n2c(-c3ccc(F)cc3F)nc3cccnc32)CC1 [Example 108] | < 10 µM | 30 to 80%
O=S(=O)(c1ccc2c(c1)OC(F)(F)O2)N1CCC(n2c(-c3ccc(F)cc3F)nc3cccnc32)CC1 [Example 109] | < 10 µM | 30 to 80%
CCc1ccc(S(=O)(=O)N2CCC(n3c(-c4ccncc4F)nc4cccnc43)CC2)cc1 [Example 110] | < 10 µM | 30 to 80%
CCc1ccc(S(=O)(=O)N2CCC(n3c(-c4ccc(F)nc4F)nc4cccnc43)CC2)cc1 [Example 111] | < 10 µM | 30 to 80%
Cc1ccc2nc(-c3ccncc3F)n(C3CCN(S(=O)(=O)c4ccc5c(c4)OC(F)(F)O5)CC3)c2n1 [Example 112] | < 10 µM | > 80%
CCc1ccc(S(=O)(=O)N2CCC(n3c(-c4ccncc4F)nc4ccc(C)nc43)CC2)cc1 [Example 113] | < 10 µM | 30 to 80%
Cc1ccc2nc(-c3ccncn3)n(C3CCN(S(=O)(=O)c4ccc5c(c4)OC(F)(F)O5)CC3)c2n1 [Example 114] | < 10 µM | 30 to 80%
CCc1ccc(S(=O)(=O)N2CCC(n3c(-c4ccncn4)nc4ccc(C)nc43)CC2)cc1 [Example 115] | < 10 µM | 30 to 80%
O=S(=O)(c1ccc2c(c1)OC(F)(F)O2)N1CCC(n2c(-c3ccncc3F)nc3ncccc32)CC1 [Example 116] | < 10 µM | > 80%
O=S(=O)(c1ccc2c(c1)CCO2)N1CCC(n2c(-c3ccncc3F)nc3cccnc32)CC1 [Example 117] | < 10 µM | 30 to 80%
COc1ccc2nc(-c3ccncc3Cl)n(C3CCN(S(=O)(=O)c4ccc5c(c4)OC(F)(F)O5)CC3)c2n1 [Example 118] | < 10 µM | 30 to 80%
O=S(=O)(c1ccc2c(c1)OC(F)(F)O2)N1CCC(n2c(-c3cccnc3F)nc3cccnc32)CC1 [Example 119] | < 10 µM | > 80%
CCc1ccc(S(=O)(=O)N2CCC(n3c(-c4cccnc4F)nc4cccnc43)CC2)cc1 [Example 120] | < 10 µM | > 80%
O=S(=O)(c1ccc2c(c1)CCO2)N1CCC(n2c(-c3ccc(F)cc3F)nc3cccnc32)CC1 [Example 121] | < 10 µM | 30 to 80%
O=S(=O)(c1ccc2c(c1)CCC2)N1CCC(n2c(-c3ccc(F)cc3F)nc3cccnc32)CC1 [Example 122] | < 10 µM | > 80%
O=S(=O)(c1ccc2c(c1)OCO2)N1CCC(n2c(-c3cccnc3F)nc3cccnc32)CC1 [Example 123] | < 10 µM | 10 to 30%
O=S(=O)(c1ccc2c(c1)OC(F)(F)O2)N1CCC(n2c(-c3ccccc3OC(F)(F)F)nc3cccnc32)CC1 [Example 124] | < 10 µM | 30 to 80%
O=S(=O)(c1ccc2c(c1)OC(F)(F)O2)N1CCC(n2c(-c3ccc(F)cc3C(F)(F)F)nc3cccnc32)CC1 [Example 125] | < 10 µM | 30 to 80%

— patent US9944603B2, “Compounds and methods for the treatment of cystic fibrosis” (Flatley Discovery Lab, LLC, priority 2013, dated 2018)
